Activity calls are given as the source filed them. No cut-off for these calls is given here.

The test system of data set [1] is T-24. Nature of the data set: Cytotoxicity against human T24 cells assessed as reduction in cell growth at 4 uM by CCK8 assay. Format: functional, cell-based. Conditions: time 24-72 hrs, TDE = time-dependent effect. (Tetrazolium dyes change colour on reduction, which living cells bring about.)
In data set [2] the test system is T-24. As to the kind of experiment: Effect on CLSPN expression in human T24 cells at 6 uM measured after 24 to 30 hrs by proteomic analysis. The class given is functional, cell-based. Conditions: time 24-30 hrs.
The test system of data set [3] is T-24. As to the kind of experiment: Effect on SUMO3 expression in human T24 cells at 6 uM measured after 24 to 30 hrs by proteomic analysis. The class given is functional, cell-based. Conditions: time 24-30 hrs.
In data set [4] the test system is T-24. Nature of the data set: Inhibition of DNA replication in human T24 cells at 4 to 10 uM measured after 24 hrs by EdU staining based fluorescence assay. The class given is functional, cell-based. Conditions: dose 4-10 µM.
Data set [5] relates to T-24. Nature of the data set: Induction of apoptosis in human T24 cells assessed as viable cells at 6 uM measured after 48 hrs by Annexin V-FITC/propidium iodide staining based flow cytometry (reference value: 97.49%). Format: functional. The settings on record: read-out: Activity.
In data set [6] the test system is T-24. Nature of the data set: Induction of apoptosis in human T24 cells assessed as effect on AIFM2 expression at 6 uM measured after 24 to 30 hrs by proteomic analysis. Format: functional, cell-based. The settings on record: time 24-30 hrs.
Data set [7] has as its system T-24. As to the kind of experiment: Induction of apoptosis in human T24 cells assessed as effect on RMDN3 expression at 6 uM measured after 24 to 30 hrs by proteomic analysis. Format: functional, cell-based. The settings on record: time 24-30 hrs.
The test system of data set [8] is T-24. Nature of the data set: Induction of apoptosis in human T24 cells assessed as effect on FAM168A expression at 6 uM measured after 24 to 30 hrs by proteomic analysis. Format: functional, cell-based. The settings on record: time 24-30 hrs.
Data set [9] deals with T-24. Nature of the data set: Induction of autophagy in human T24 cells assessed as effect on FLCN gene expression at 6 uM measured after 12 to 18 hrs by transcriptome analysis. The class given is functional, cell-based. Conditions: time 12-18 hrs.
The test system of data set [10] is T-24. Nature of the data set: Induction of apoptosis in human T24 cells assessed as up regulation of SQSTM1 expression at 6 to 12 uM measured after 24 to 30 hrs by Western blot analysis. Format: functional, cell-based. The settings on record: dose 6-12 µM, time 24-30 hrs. In general terms: Immunoblotting shows a protein as a band on a membrane.
The test system of data set [11] is T-24. Nature of the data set: Induction of apoptosis in human T24 cells assessed as up regulation of MAP1LC3B expression at 6 to 12 uM measured after 24 to 30 hrs by Western blot analysis. The settings on record: dose 6-12 µM, time 24-30 hrs. The class given is functional, cell-based.
Data set [12] has as its system T-24. Nature of the data set: Induction of morphological changes in human T24 cells assessed as appearance of apoptotic bodies at 4 to 8 uM measured after 48 hrs by transmission electron microscopy. Conditions: dose 4-8 µM. The class given is functional, cell-based.
The test system of data set [13] is T-24. As to the kind of experiment: Antimigratory activity against human T24 cells assessed as reduction in F-actin expression at 8 to 20 uM measured after 24 hrs by actin-tracker red-594/DAPI staining based fluorescence assay. Format: functional, cell-based. Conditions: dose 8-20 µM.
Data set [14] in a line: Toxicity in human T24 cells xenografted BALB/c mouse assessed as effect on body weight at 2 mg/kg, ip administered at 2 days interval. The class given is organism-based, T-24. Conditions: in vivo, 48 h. A general note: Xenograft models place foreign cells or tissue in a host animal.

In the case of `C=C1C(=O)[C@]23C[C@H]1C[C@@H](O)[C@H]2[C@@]12CO[C@@H](O)[C@@H]1C(C)(C)CC[C@@H]2OC3=O` [NODOSIN], the Activity entry was “Tde” in data set [1] and “Non-Toxic” in data set [14]. The outcome in data set [2], in [3], in data set [6], in data set [7], in data set [8] and in data set [9] was Active. The outcome in [10], in data set [11], in data set [12] and in [13] was Active. For the same compound, in data set [4], the inhibition result was “Active”. In addition, in [5], the viability at 6 µM worked out at 78.8%.

Values taken from ChEMBL document CHEMBL5120971, “Network Pharmacology Research and Dual-omic Analyses Reveal the Molecular Mechanism of Natural Product Nodosin Inhibiting Muscle-Invasive Bladder Cancer in Vitro and in Vivo” (J Nat Prod, 2022).
